# Assay results as given in patent publication US20160175318A1, “COMPOSITIONS COMPRISING ANTIBACTERIAL AGENT AND TAZOBACTAM” (WOCKHARDT LIMITED, priority 2013, published 2016).
# Like-named read-outs stand apart in the source and are kept apart here.
# Tests used:
# Format in all cases: cell-based
# E. cloacae M-20 = test: MIC by agar dilution (CLSI) against highly resistant ESBL strain; settings: E. cloacae M-20
# Method in brief: (§1)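 Cephalosporins, including cefepime, combined with tazobactam; CLSI agar dilution with twofold steps. Overnight cultures diluted, inoculated, incubated 35±2° C for 16-20 h, ambient air, then checked for growth.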
# E. coli 7MP [1] = test: as above; settings: E. coli 7MP
# Method in brief: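 Agar dilution, CLSI: diluted overnight inoculum on doubling-dilution antibiotic plates; cephalosporins ± tazobactam; 16-20 h, 35±2° C, ambient air; growth/no growth read.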
# E. coli B-89 [2] = test: as above; settings: E. coli B-89
# Method in brief: as §1
# E. coli M50 [3] = test: as above
# Method in brief: as §1
# K. pneumoniae M150 = test: as above; settings: Klebsiella pneumoniae, M150, K. pneumoniae M150, read-out: MIC
# Method in brief: as §1
# E. coli 7MP [4] = test: Quantitative drug diffusion assay (disc, zone of inhibition, CLSI); set-up: key to Interpretation of zone as per CLSI recommendations: R: Resistant; I: Intermediate; S: Sensitive (Interpretation as per CLSI recommendations, 2010)
# Source text: (§2) Activity of cefepime in combination with tazobactam and various penicillins in combination with respective ESBL inhibitors was also investigated against highly resistant ESBL strains in quantitative drug diffusion assay performed as per CLSI recommendations (Clinical and Laboratory Standards Institute (CLSI), performance Standards for Antimicrobial Susceptibility Testing, 20th Informational Supplement, M 100-S20, Volume 30, No. 1, 2010).
# (§3) In a typical study, overnight grown bacterial cultures after appropriate dilution were seed inoculated in the molten, cooled agar media and plates poured. Antibiotics containing 6 mm diameter discs were place on the top of the agar surface. Zone of inhibition based observation was performed after 16-18 h of incubation at 35±2° C. in ambient air. The overall procedure was performed as per CLSI recommendations (Table 5 and 6). These assays are routinely used in determining possibility of treating a particular infection using antibiotic and/or their combinations. For example, in case of treating an infection caused by E. coli (M138) using Augmentin® [commercially available combination: Amoxicillin (500 mg)+Clavulanic acid (125 mg)], the zone inhibition values need to be in the sensitive (S) range.
# E. coli B-123 = test: as above; set-up: key to Interpretation of zone as per CLSI recommendations: R: Resistant; I: Intermediate; S: Sensitive (Interpretation as per CLSI recommendations, 2010)
# Source text: as §2, §3
# E. coli B-89 [5] = test: as above; set-up: key to Interpretation of zone as per CLSI recommendations: R: Resistant; I: Intermediate; S: Sensitive (Interpretation as per CLSI recommendations, 2010)
# Source text: as §2, §3
# E. coli M-138 = test: as above; set-up: key to Interpretation of zone as per CLSI recommendations: R: Resistant; I: Intermediate; S: Sensitive (Interpretation as per CLSI recommendations, 2010)
# Source text: as §2, §3
# E. coli M50 [6] = test: as above; set-up: key to Interpretation of zone as per CLSI recommendations: R: Resistant; I: Intermediate; S: Sensitive (Interpretation as per CLSI recommendations, 2010)
# Source text: as §2, §3
# E. coli S-112 = test: as above; set-up: key to Interpretation of zone as per CLSI recommendations: R: Resistant; I: Intermediate; S: Sensitive (Interpretation as per CLSI recommendations, 2010)
# Source text: as §2, §3
# [7] = ESBL inhibitor 0 mcg (antibiotic alone)
# [8] = Table 5, with Clavulanic acid 10 mcg
# [9] = Table 6, with Clavulanic acid 10 mcg
smiles,measurement,setting,value
CC1(C)S[C@@H]2[C@H](NC(=O)[C@H](C(=O)O)c3ccsc3)C(=O)N2[C@H]1C(=O)O [Ticarcillin],MIC,E. cloacae M-20; with Tazobactam 4 mcg,>64 µg/mL
same,MIC,E. cloacae M-20; with Tazobactam 8 mcg,>64 µg/mL
same,MIC,"E. cloacae M-20; Enterobacter cloacae, M20, 20 h, Tazobactam 0 mcg (antibiotic alone), read-out: MIC",> 128 µg/mL
same,MIC,E. coli 7MP [1]; with Tazobactam 4 mcg,>64 µg/mL
same,MIC,E. coli 7MP [1]; with Tazobactam 8 mcg,>64 µg/mL
same,MIC,"E. coli 7MP [1]; Escherichia coli, 7MP, 20 h, Tazobactam 0 mcg (antibiotic alone), read-out: MIC",> 128 µg/mL
same,MIC,E. coli B-89 [2]; with Tazobactam 4 mcg,>64 µg/mL
same,MIC,E. coli B-89 [2]; with Tazobactam 8 mcg,>64 µg/mL
same,MIC,"E. coli B-89 [2]; Escherichia coli, B89, 20 h, Tazobactam 0 mcg (antibiotic alone), read-out: MIC",> 128 µg/mL
same,MIC,"E. coli M50 [3]; Escherichia coli, 20 h, Tazobactam 0 mcg (antibiotic alone), read-out: MIC",> 128 µg/mL
same,MIC,E. coli M50 [3]; with Tazobactam 4 mcg,>64 µg/mL
same,MIC,E. coli M50 [3]; with Tazobactam 8 mcg,>64 µg/mL
same,MIC,K. pneumoniae M150; Tazobactam 0 mcg (antibiotic alone),> 128 µg/mL
same,MIC,K. pneumoniae M150; with Tazobactam 4 mcg,> 64 µg/mL
same,MIC,K. pneumoniae M150; with Tazobactam 8 mcg,> 64 µg/mL
same,Zone of Inhibition,E. coli 7MP [4]; [7],Nil
same,Interpretation of zone as per CLSI recommendations,"E. coli 7MP [4]; Table 5, ESBL inhibitor 0 mcg",(R)
same,Interpretation of zone as per CLSI recommendations,E. coli 7MP [4]; [8],(R)
same,Interpretation of zone as per CLSI recommendations,"E. coli 7MP [4]; Table 6, ESBL inhibitor 0 mcg",(R)
same,Interpretation of zone as per CLSI recommendations,E. coli 7MP [4]; [9],(R)
same,Zone of Inhibition,E. coli 7MP [4]; with Clavulanic acid 10 mcg,Nil
same,Zone of Inhibition,E. coli B-123; [7],Nil
same,Interpretation of zone as per CLSI recommendations,"E. coli B-123; Table 5, ESBL inhibitor 0 mcg",(R)
same,Interpretation of zone as per CLSI recommendations,E. coli B-123; [8],(R)
same,Interpretation of zone as per CLSI recommendations,"E. coli B-123; Table 6, ESBL inhibitor 0 mcg",(R)
same,Interpretation of zone as per CLSI recommendations,E. coli B-123; [9],(R)
same,Zone of Inhibition,E. coli B-123; with Clavulanic acid 10 mcg,13.5 mm
same,Zone of Inhibition,E. coli B-89 [5]; [7],Nil
same,Interpretation of zone as per CLSI recommendations,"E. coli B-89 [5]; Table 5, ESBL inhibitor 0 mcg",(R)
same,Interpretation of zone as per CLSI recommendations,E. coli B-89 [5]; [8],(R)
same,Interpretation of zone as per CLSI recommendations,"E. coli B-89 [5]; Table 6, ESBL inhibitor 0 mcg",(R)
same,Interpretation of zone as per CLSI recommendations,E. coli B-89 [5]; [9],(R)
same,Zone of Inhibition,E. coli B-89 [5]; with Clavulanic acid 10 mcg,10 mm
same,Zone of Inhibition,E. coli M-138; [7],Nil
same,Interpretation of zone as per CLSI recommendations,"E. coli M-138; Table 5, ESBL inhibitor 0 mcg",(R)
same,Interpretation of zone as per CLSI recommendations,E. coli M-138; [8],(R)
same,Interpretation of zone as per CLSI recommendations,"E. coli M-138; Table 6, ESBL inhibitor 0 mcg",(R)
same,Interpretation of zone as per CLSI recommendations,E. coli M-138; [9],(R)
same,Zone of Inhibition,E. coli M-138; with Clavulanic acid 10 mcg,10 mm
same,Zone of Inhibition,E. coli M50 [6]; [7],9 mm
same,Interpretation of zone as per CLSI recommendations,"E. coli M50 [6]; Table 5, ESBL inhibitor 0 mcg",(R)
same,Interpretation of zone as per CLSI recommendations,E. coli M50 [6]; [8],(R)
same,Interpretation of zone as per CLSI recommendations,"E. coli M50 [6]; Table 6, ESBL inhibitor 0 mcg",(R)
same,Interpretation of zone as per CLSI recommendations,E. coli M50 [6]; [9],(R)
same,Zone of Inhibition,E. coli M50 [6]; with Clavulanic acid 10 mcg,11.5 mm
same,Zone of Inhibition,E. coli S-112; [7],Nil
same,Interpretation of zone as per CLSI recommendations,"E. coli S-112; Table 5, ESBL inhibitor 0 mcg",(R)
same,Interpretation of zone as per CLSI recommendations,E. coli S-112; [8],(R)
same,Interpretation of zone as per CLSI recommendations,"E. coli S-112; Table 6, ESBL inhibitor 0 mcg",(R)
same,Interpretation of zone as per CLSI recommendations,E. coli S-112; [9],(R)
same,Zone of Inhibition,E. coli S-112; with Clavulanic acid 10 mcg,10 mm
